This experiment relates to P388 leukemia ip, CD2F1 mice, survival T/C. In words: NCI In Vivo Anticancer Drug Screen. Data for tumor model P388 Leukemia (intraperitoneal) in CD2F1 (CDF1) mice. The note with it: endpoint: median survival time, higher = longer survival. The method in brief: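 Mice carrying the transplanted tumor received test compound or vehicle. Survival was recorded in each group, and the value is the treated-group measurement divided by that of the vehicle-treated control group.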

Setting [1] is: dose: 60.0 mg/kg/injection, schedule: Q01DX005 (ip), vehicle: saline with Tween-80.
Where [2] appears, read: dose: 120.0 mg/kg/injection, schedule: Q01DX005 (ip), vehicle: saline with Tween-80.
The mark [3] stands for this setting: dose: 240.0 mg/kg/injection, schedule: Q01DX005 (ip), vehicle: saline with Tween-80.
The mark [4] stands for this setting: dose: 50.0 mg/kg/injection, schedule: Q01DX005 (ip), vehicle: Klucel (hydroxypropylcellulose) (HPC).
The mark [5] stands for this setting: dose: 100.0 mg/kg/injection, schedule: Q01DX005 (ip), vehicle: Klucel (hydroxypropylcellulose) (HPC).
Where [6] appears, read: dose: 200.0 mg/kg/injection, schedule: Q01DX005 (ip), vehicle: Klucel (hydroxypropylcellulose) (HPC).
Where [7] appears, read: dose: 50.0 mg/kg/injection, schedule: Q01DX009 (ip), vehicle: Klucel (hydroxypropylcellulose) (HPC).
Setting [8] is: dose: 100.0 mg/kg/injection, schedule: Q01DX009 (ip), vehicle: Klucel (hydroxypropylcellulose) (HPC).
[9] abbreviates: dose: 200.0 mg/kg/injection, schedule: Q01DX009 (ip), vehicle: Klucel (hydroxypropylcellulose) (HPC).
[10] abbreviates: dose: 25.0 mg/kg/injection, schedule: Q01DX005 (ip), vehicle: saline with Tween-80.
Setting [11] is: dose: 50.0 mg/kg/injection, schedule: Q01DX005 (ip), vehicle: saline with Tween-80.
The mark [12] stands for this setting: dose: 200.0 mg/kg/injection, schedule: Q01DX005 (ip), vehicle: saline with Tween-80.
Where [13] appears, read: dose: 100.0 mg/kg/injection, schedule: Q01DX005 (ip), vehicle: saline with Tween-80.
Setting [14] is: dose: 50.0 mg/kg/injection, schedule: Q01DX005 (ip), vehicle: saline.
Setting [15] is: dose: 100.0 mg/kg/injection, schedule: Q01DX005 (ip), vehicle: saline.

“And” between values parts separate entries of the source, which are not always exact repeats. Equal entries are not always repeated. Inconclusive results and toxic doses are left out. Peptide text beside a SMILES is read from it.

In the case of `C1CNCCN1`, the T/C is, setting by setting: (dose: 12.5 mg/kg/injection, schedule: Q01DX009 (ip), vehicle: saline) 113 % of control and 96 % of control; (dose: 12.5 mg/kg/injection, schedule: Q01DX009 (ip), vehicle: suspension in saline) 93 % of control; (dose: 25.0 mg/kg/injection, schedule: Q01DX009 (ip), vehicle: saline) 114 % of control and 96 % of control; (dose: 50.0 mg/kg/injection, schedule: Q01DX009 (ip), vehicle: saline) 94 % of control and 97 % of control; (dose: 100.0 mg/kg/injection, schedule: Q01DX009 (ip), vehicle: saline) 89 % of control; (dose: 100.0 mg/kg/injection, schedule: Q01DX009 (ip), vehicle: suspension in saline) 97 % of control. The T/C (dose: 150.0 mg/kg/injection, schedule: Q01DX009 (ip), vehicle: saline) was 100 % of control and 114 % of control; the T/C (dose: 150.0 mg/kg/injection, schedule: Q01DX009 (ip), vehicle: suspension in saline) is 93 % of control.

Consider `Nc1ncnc2c1ncn2[C@@H](C=O)O[C@@H](C=O)CO`, for which the T/C reads like this: (dose: 3.13 mg/kg/injection, schedule: Q01DX009 (ip), vehicle: other) 155 % of control; (dose: 6.25 mg/kg/injection, schedule: Q01DX009 (ip), vehicle: other) 150 % of control and 169 % of control.

With `CC12OC(=O)C(C(N)=O)=C1C=C(c1ccccc1)CC2c1ccccc1` (configuration not stated), the T/C under setting [1] is 96 % of control, the T/C under setting [2] was 96 % of control and the T/C under setting [3] was 89 % of control.

On to `CCCCN(CCCC)/C(N)=N/O`, for which the T/C runs as follows: (dose: 20.0 mg/kg/injection, schedule: Q01DX009 (ip), vehicle: saline with Tween-80) 92 % of control; (dose: 40.0 mg/kg/injection, schedule: Q01DX009 (ip), vehicle: saline with Tween-80) 100 % of control; (dose: 80.0 mg/kg/injection, schedule: Q01DX009 (ip), vehicle: saline with Tween-80) 107 % of control.

For `COC(=O)N1c2ccccc2[C@@H](O)[C@@H]1OC`, the T/C reads like this: under setting [1], 119 % of control; under setting [2], 116 % of control; under setting [3], 100 % of control.

On to `CC(C)CC(NC(=O)C(CC(=O)O)NC(=O)C(N)CO)C(=O)N1CCCC1C(=O)NC(CCC(N)=O)C(=O)NC(C(=O)O)C(C)O` (configuration not stated) (H-SDLPQT-OH; configuration not given here), for which the T/C was 110 % of control (dose: 9.0 mg/kg/injection, schedule: Q01DX005 (ip), vehicle: water); 107 % of control (dose: 18.0 mg/kg/injection, schedule: Q01DX005 (ip), vehicle: water); 107 % of control (dose: 36.0 mg/kg/injection, schedule: Q01DX005 (ip), vehicle: water); 107 % of control (dose: 72.0 mg/kg/injection, schedule: Q01DX005 (ip), vehicle: water); 100 % of control (dose: 144.0 mg/kg/injection, schedule: Q01DX005 (ip), vehicle: water).

Regarding `Cc1cc2c(oc(=O)c3cc(C)sc32)s1`, the T/C is 99 % of control under setting [4], 103 % of control under setting [5] and 97 % of control under setting [6].

Regarding `COc1cc2c(cc1C/C=C/c1cc(OC)c(OC)c(OC)c1)OCO2`, the T/C under setting [1] was 93 % of control, the T/C under setting [2] is 87 % of control and the T/C under setting [3] was 86 % of control.

With `C=C1C(=O)OC2/C=C(\C)CC(OC(C)=O)/C=C(/CO)CC(OC(=O)/C(C)=C/C)C12` (configuration not stated), the T/C is 90 % of control (dose: 3.75 mg/kg/injection, schedule: Q01DX009 (ip), vehicle: saline + alcohol); 98 % of control (dose: 7.5 mg/kg/injection, schedule: Q01DX009 (ip), vehicle: saline + alcohol); 93 % of control (dose: 15.0 mg/kg/injection, schedule: Q01DX009 (ip), vehicle: saline + alcohol); 86 % of control (dose: 30.0 mg/kg/injection, schedule: Q01DX009 (ip), vehicle: saline + alcohol).

For the compound `CC1OC(Nc2ncnc3nc[nH]c23)C(O)C(O)C1NC(=O)CNC(=O)CCCCCCCCCCCC(C)(C)C` (configuration not stated), the T/C (dose: 0.25 mg/kg/injection, schedule: Q01DX009 (ip), vehicle: distilled water + Tween-80) is 111 % of control and 117 % of control; the T/C (dose: 0.5 mg/kg/injection, schedule: Q01DX009 (ip), vehicle: distilled water + Tween-80) was 118 % of control; the T/C (dose: 1.0 mg/kg/injection, schedule: Q01DX009 (ip), vehicle: distilled water + Tween-80) is 166 % of control; the T/C (dose: 2.0 mg/kg/injection, schedule: Q01DX009 (ip), vehicle: distilled water + Tween-80) was 117 % of control; the T/C (dose: 4.0 mg/kg/injection, schedule: Q01DX009 (ip), vehicle: distilled water + Tween-80) was 108 % of control and 91 % of control.

For the compound `Cc1ncc(C(O)CCC2OCCO2)n1Cc1ccccc1` (configuration not stated), the T/C under setting [7] is 96 % of control, the T/C under setting [8] is 98 % of control and the T/C under setting [9] was 98 % of control.

In the case of `CCc1cccc(CC)c1NC(=O)NN(CC)CC`, the T/C under setting [1] was 93 % of control and the T/C under setting [2] is 103 % of control.

On to `C[N+]1(C)[B]C[N+](C)(C)[B-]1`, for which the T/C reads like this: under setting [7], 92 % of control; under setting [8], 105 % of control; under setting [9], 103 % of control.

For the compound `COc1cc([N+](=O)[O-])c(S(=O)(=O)O)cc1N`, the T/C was 99 % of control under setting [1], 94 % of control under setting [2] and 93 % of control under setting [3].

Turning to `CC1(C)C2CCC1(C)C(N1C(=O)N=NC1=O)C2` (configuration not stated), the T/C is 100 % of control (dose: 12.5 mg/kg/injection, schedule: Q01DX005 (ip), vehicle: saline with Tween-80); 103 % of control under setting [10]; 103 % of control and 91 % of control under setting [11]; 104 % of control under setting [12].

Turning to `CSC(=S)N/N=C(\C)c1nccnc1C`, the T/C reads like this: under setting [11], 101 % of control; under setting [13], 106 % of control; under setting [12], 111 % of control.

Take `COc1ccc(NS(=O)(=O)c2ccc(NC3OC(CO)C(O)C(O)C3NC(C)=O)cc2)nn1` (configuration not stated): the T/C is 104 % of control under setting [14]; 100 % of control under setting [15]; 104 % of control (dose: 200.0 mg/kg/injection, schedule: Q01DX005 (ip), vehicle: saline).

For `NC(CSC(c1ccccc1)c1ccccc1)C(=O)NCC(=O)O` (configuration not stated), the T/C is 99 % of control under setting [4], 99 % of control under setting [5] and 104 % of control under setting [6].

For `O=C(c1ccccc1)C(Cl)C(Cl)c1ccccc1` (configuration not stated), the T/C under setting [10] is 102 % of control, the T/C under setting [11] is 105 % of control, the T/C under setting [13] is 101 % of control and the T/C under setting [12] was 100 % of control.

For the compound `Cc1c2cnccc2c(C)c2c1c1c(C)c3cnccc3c(C)c1n2C`, the T/C is, setting by setting: (dose: 6.25 mg/kg/injection, schedule: Q04DX002 (ip), vehicle: distilled water + Tween-80) 94 % of control; (dose: 12.5 mg/kg/injection, schedule: Q04DX002 (ip), vehicle: distilled water + Tween-80) 97 % of control; (dose: 25.0 mg/kg/injection, schedule: Q04DX002 (ip), vehicle: distilled water + Tween-80) 102 % of control; (dose: 50.0 mg/kg/injection, schedule: Q04DX002 (ip), vehicle: distilled water + Tween-80) 108 % of control; (dose: 100.0 mg/kg/injection, schedule: Q04DX002 (ip), vehicle: distilled water + Tween-80) 94 % of control.

Take `O=C(OCCCl)c1ccccc1NC(=O)N1CCOCC1`: the T/C is, setting by setting: under setting [4], 105 % of control; under setting [5], 99 % of control; under setting [6], 98 % of control.

As to `CN1COc2c(n(C)c(=O)[nH]c2=O)C1`, the T/C was 102 % of control and 106 % of control under setting [14]; 114 % of control and 115 % of control under setting [15].

For the compound `O=C1OCCCCCCOC(=O)c2ccccc2SSc2ccccc21`, the T/C runs as follows: (dose: 12.5 mg/kg/injection, schedule: Q01DX001 (ip), vehicle: saline with Tween-80) 101 % of control; (dose: 25.0 mg/kg/injection, schedule: Q01DX001 (ip), vehicle: saline with Tween-80) 94 % of control; (dose: 50.0 mg/kg/injection, schedule: Q01DX001 (ip), vehicle: saline with Tween-80) 94 % of control; (dose: 200.0 mg/kg/injection, schedule: Q01DX001 (ip), vehicle: saline with Tween-80) 88 % of control; (dose: 400.0 mg/kg/injection, schedule: Q01DX001 (ip), vehicle: saline with Tween-80) 90 % of control.

For the origin of these results see PubChem BioAssay AID330 (DTP/NCI, 2004).
